Measured values from the NIST ThermoML archive (doi:10.1016/j.fluid.2004.10.028).

Experiment: wn = mass fraction of the nth substance listed
Conditions: Liquid, Capillary tube (Ostwald / Ubbelohde) method

O=S(=O)([O-])[O-].[Na+].[Na+] [sodium sulfate] + O
viscosity [mPa·s]
Conditions	100 kPa	10000 kPa	20000 kPa	30000 kPa	40000 kPa
298.15 K, w1 = 0.015	0.933	0.9335	0.9365	0.9399	0.942
298.15 K, w1 = 0.03	0.9746	0.9759	0.9769	0.9799	0.9812
298.15 K, w1 = 0.05	1.035	1.04	1.041	1.042	1.044
298.15 K, w1 = 0.07	1.119	1.119	1.119	1.121	1.122
298.15 K, w1 = 0.1	1.252	1.255	1.256	1.257	1.258
298.15 K, w1 = 0.15	1.545	1.548	1.55	1.551	1.554
298.15 K, w1 = 0.2	1.963	1.965	1.966	1.967	1.968
303.15 K, w1 = 0.23	1.993	1.993	1.996	1.999	2.002
303.15 K, w1 = 0.26	2.243	2.245	2.249	2.253	2.259
323.05 K, w1 = 0.1	0.7656	0.767	0.771	0.7745	0.778
323.15 K, w1 = 0.03	0.5972	0.5991	0.6012	0.6054	0.609
323.15 K, w1 = 0.2	1.168	1.17	1.176	1.181	1.185
323.15 K, w1 = 0.23	1.333	1.336	1.34	1.346	1.353
323.15 K, w1 = 0.26	1.504	1.505	1.509	1.515	1.523
323.25 K, w1 = 0.07	0.6825	0.6846	0.6875	0.6902	0.6935
323.4 K, w1 = 0.15	0.9286	0.9316	0.9354	0.9401	0.945
323.7 K, w1 = 0.015	0.5669	0.5741	0.5795	0.5821	0.5835
323.8 K, w1 = 0.05	0.6285	0.632	0.633	0.636	0.6385
347.2 K, w1 = 0.05	0.4434	0.4465	0.4496	0.453	0.4587
347.6 K, w1 = 0.07	0.4733	0.4764	0.4795	0.4824	0.4875
347.9 K, w1 = 0.2	0.7892	0.7944	0.8004	0.8053	0.811
348.15 K, w1 = 0.015	0.395	0.3977	0.4006	0.4038	0.4087
348.35 K, w1 = 0.03	0.4107	0.4134	0.4169	0.42	0.4225
348.42 K, w1 = 0.1	0.5232	0.5267	0.5294	0.534	0.5399
348.6 K, w1 = 0.26	1.01	1.017	1.023	1.029	1.041
348.7 K, w1 = 0.15	0.6292	0.6336	0.6367	0.6418	0.6473
348.7 K, w1 = 0.23	0.8925	0.8987	0.9053	0.9128	0.92
370.4 K, w1 = 0.23	–	0.6799	0.6864	0.6905	0.6997
371.95 K, w1 = 0.05	–	0.3317	0.335	0.3389	0.343
372.4 K, w1 = 0.1	–	0.3948	0.3979	0.3998	0.4062
372.8 K, w1 = 0.15	–	0.4705	0.4743	0.4795	0.484
372.9 K, w1 = 0.03	–	0.3096	0.3124	0.3164	0.3186
373.8 K, w1 = 0.015	–	0.2947	0.2994	0.3034	0.3065
373.9 K, w1 = 0.07	–	0.3482	0.3508	0.3546	0.359
374.5 K, w1 = 0.2	–	0.5699	0.5743	0.5799	0.5875
375.2 K, w1 = 0.26	–	0.7321	0.7395	0.7436	0.7535
395.4 K, w1 = 0.15	–	0.3731	0.3767	0.381	0.386
395.62 K, w1 = 0.05	–	0.2626	0.2668	0.2695	0.2716
397.1 K, w1 = 0.07	–	0.2772	0.2799	0.2834	0.287
397.21 K, w1 = 0.2	–	0.4505	0.454	0.4598	0.4654
398.4 K, w1 = 0.03	–	0.2422	0.2468	0.2494	0.251
398.72 K, w1 = 0.1	–	0.3052	0.3094	0.3132	0.3159
398.8 K, w1 = 0.23	–	0.5081	0.5124	0.5185	0.5253
399.01 K, w1 = 0.015	–	0.2321	0.2367	0.2398	0.2412
399.4 K, w1 = 0.26	–	0.5695	0.5739	0.58	0.5895
420.3 K, w1 = 0.2	–	0.3686	0.3729	0.3775	0.3826
421.3 K, w1 = 0.15	–	0.2998	0.3027	0.3087	0.3114
421.4 K, w1 = 0.1	–	0.2535	0.2565	0.2596	0.2635
421.5 K, w1 = 0.03	–	0.2013	0.2035	0.2068	0.209
422.51 K, w1 = 0.23	–	0.4132	0.4195	0.4254	0.43
422.61 K, w1 = 0.015	–	0.1927	0.1968	0.1999	0.2022
423.8 K, w1 = 0.26	–	0.4623	0.4688	0.4726	0.4803
424.67 K, w1 = 0.05	–	0.2079	0.2096	0.213	0.2164
425.6 K, w1 = 0.07	–	0.2211	0.2267	0.2293	0.23
444.81 K, w1 = 0.2	–	0.3083	0.3129	0.3175	0.3219
446.24 K, w1 = 0.05	–	0.1796	0.182	0.1853	0.1879
447 K, w1 = 0.07	–	0.1913	0.1946	0.1975	0.1998
447.2 K, w1 = 0.1	–	0.2125	0.2163	0.2189	0.2219
447.6 K, w1 = 0.015	–	0.1633	0.1684	0.17	0.1724
447.6 K, w1 = 0.15	–	0.2493	0.2551	0.2575	0.2603
447.6 K, w1 = 0.26	–	0.3901	0.3981	0.401	0.4047
447.81 K, w1 = 0.03	–	0.1686	0.1705	0.1734	0.1761
447.9 K, w1 = 0.23	–	0.3449	0.3498	0.3568	0.3609
470.16 K, w1 = 0.05	–	0.1564	0.1598	0.1629	0.1647
470.7 K, w1 = 0.015	–	0.1432	0.1468	0.1499	0.1508
471.31 K, w1 = 0.1	–	0.1847	0.1878	0.1904	0.1941
472 K, w1 = 0.23	–	0.2966	0.3024	0.3086	0.312
472.2 K, w1 = 0.07	–	0.1656	0.1689	0.1706	0.1739
472.3 K, w1 = 0.2	–	0.2608	0.2661	0.2699	0.2739
473.7 K, w1 = 0.03	–	0.1456	0.1486	0.1514	0.153
473.9 K, w1 = 0.26	–	0.3308	0.3354	0.3413	0.3476
473.93 K, w1 = 0.15	–	0.2133	0.2169	0.2199	0.224
496.34 K, w1 = 0.23	–	0.262	0.2695	0.2734	0.2776
497.1 K, w1 = 0.03	–	0.1296	0.1312	0.136	0.1375
497.19 K, w1 = 0.2	–	0.2292	0.2335	0.2387	0.2425
497.8 K, w1 = 0.15	–	0.1892	0.1945	0.1978	0.2001
498.22 K, w1 = 0.1	–	0.1618	0.1641	0.1678	0.1711
498.3 K, w1 = 0.015	–	0.1248	0.1286	0.1307	0.1325
498.7 K, w1 = 0.07	–	0.1451	0.1489	0.1506	0.1533
498.7 K, w1 = 0.26	–	0.2923	0.2976	0.3018	0.309
499.3 K, w1 = 0.05	–	0.1352	0.1363	0.1392	0.143
520.5 K, w1 = 0.26	–	0.2636	0.2691	0.2746	0.2813
520.51 K, w1 = 0.23	–	0.2338	0.2387	0.2415	0.249
520.64 K, w1 = 0.015	–	0.1128	0.1165	0.1191	0.1209
522.4 K, w1 = 0.15	–	0.1686	0.1709	0.1748	0.179
523.1 K, w1 = 0.07	–	0.1298	0.1324	0.1367	0.1385
523.3 K, w1 = 0.03	–	0.115	0.1169	0.1196	0.1219
523.8 K, w1 = 0.2	–	0.2021	0.2076	0.2105	0.216
524.7 K, w1 = 0.05	–	0.1204	0.1231	0.1267	0.1286
525.4 K, w1 = 0.1	–	0.143	0.1469	0.1493	0.1524
545.3 K, w1 = 0.05	–	0.1097	0.112	0.1143	0.1177
545.4 K, w1 = 0.2	–	0.184	0.1879	0.1923	0.1989
546.2 K, w1 = 0.07	–	0.1171	0.1197	0.1224	0.1267
547.7 K, w1 = 0.15	–	0.151	0.1548	0.1589	0.1634
547.9 K, w1 = 0.015	–	0.1	0.1025	0.1068	0.1089
547.9 K, w1 = 0.1	–	0.1296	0.1329	0.136	0.1399
548.7 K, w1 = 0.23	–	0.2061	0.2106	0.2186	0.223
549.9 K, w1 = 0.03	–	0.1023	0.1065	0.1086	0.1109
570.5 K, w1 = 0.15	–	0.1354	0.1399	0.1463	0.1496
572.62 K, w1 = 0.03	–	0.092	0.0967	0.0992	0.102
572.96 K, w1 = 0.05	–	0.0965	0.0998	0.1029	0.1066
573.2 K, w1 = 0.1	–	0.1143	0.1178	0.1204	0.1266
573.5 K, w1 = 0.07	–	0.1031	0.1068	0.1092	0.1143
